Values quoted from earlier work as cited in publication PMC7414093 (Proceedings of the National Academy of Sciences of the …, 2020).
Numbered stars: 1 amine (or outer) side, 2 acyl side, 3 side chain; on linkers, the order of the positions; unused ones are H or OH. Bridge positions count the residues as written; N and C are the ends. Square brackets hold non-standard residues; d marks the D form. Peptide text beside a SMILES is read from it. Phe(3,4-Cl2) = N[C@@H](Cc1ccc(Cl)c(Cl)c1)C(=O)O; X1 = NCCC(=O)N[C@@H](CN[*:2])C(=O)[*:1]; hhPhe = N[C@@H](CCCc1ccccc1)C(=O)O; NMeL = CN[C@@H](CC(C)C)C(=O)O; Orn = NCCC[C@H](N)C(=O)O

Test system: HA
Parameters: method as in PMID 28971971
Conditions: AlphaLISA, HB80.4 as competitor for HA binding; cited from earlier work

For CC(=O)N[C@@H](CCCc1ccccc1)C(=O)N[C@H]1CCCNC(=O)[C@@H](NC(=O)CCN)CNC(=O)[C@H](CO)NC(=O)[C@H](CC(C)C)NC(=O)[C@H](Cc2c[nH]c3ccccc23)NC(=O)[C@H](CCC(=O)O)NC(=O)[C@H](Cc2ccc(Cl)c(Cl)c2)NC(=O)[C@H](Cc2ccc(O)cc2)NC(=O)[C@H](CCC(=O)O)NC(=O)[C@H](CC(C)C)N(C)C1=O [P7] (Ac-[hhPhe][Orn][NMeL]EY[Phe(3,4-Cl2)]EWLS; linker 2-C via X1), the EC50 is given as 30 to 70 nM.
